Among the data in patent US20260092074A1, “Annelated Pyridines as Steroidogenesis Inhibitors, Preparation Method and Use Thereof” (Guangzhou Vinnocent Pharmaceutical Limited, priority 2022, published 2026) are IC50 values, retold here.

The structures appear in SMILES notation.

For orientation: IC50 means the concentration needed to halve the response being measured.

In one experiment the target is T1, human CYP11B1 (Homo sapiens, UniProt P15538).
T1 construct: expressed in transfected cells
T1 sequence (P15538 25-503): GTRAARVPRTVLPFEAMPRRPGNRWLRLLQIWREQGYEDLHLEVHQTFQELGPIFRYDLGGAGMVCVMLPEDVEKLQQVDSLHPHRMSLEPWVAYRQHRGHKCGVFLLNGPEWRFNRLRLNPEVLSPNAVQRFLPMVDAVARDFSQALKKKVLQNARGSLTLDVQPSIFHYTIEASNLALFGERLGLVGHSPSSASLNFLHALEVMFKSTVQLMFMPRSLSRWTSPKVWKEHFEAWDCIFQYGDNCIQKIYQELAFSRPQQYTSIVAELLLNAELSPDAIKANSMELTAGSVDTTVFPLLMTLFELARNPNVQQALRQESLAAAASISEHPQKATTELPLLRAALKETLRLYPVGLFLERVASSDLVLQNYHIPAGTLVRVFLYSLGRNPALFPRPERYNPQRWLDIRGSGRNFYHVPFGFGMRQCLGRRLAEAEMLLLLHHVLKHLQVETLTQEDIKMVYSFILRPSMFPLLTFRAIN
Kind of experiment: Inhibition of hCYP11B1 in transfected V79 cells. Type of experiment: cell-based. To be noted: hamster V79 cells expressing human CYP11B1; substrate 11-deoxycortisol 200 nM. A digest of the protocol: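 V79 hamster cells stably expressing human CYP11B1 and rat NADPH-P450 reductase were preincubated with compounds for 2 h. 11-Deoxycortisol (200 nM) was then added as substrate for 30 min before ethyl acetate quench. Substrate and product were quantified by LC-MS/MS or HPLC at 260 nm, and IC50 was derived from percent inhibition.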

In another experiment the target is T2, human CYP11B2 (Homo sapiens, UniProt P19099).
T2 construct: expressed in transfected cells
T2 sequence (P19099 25-503): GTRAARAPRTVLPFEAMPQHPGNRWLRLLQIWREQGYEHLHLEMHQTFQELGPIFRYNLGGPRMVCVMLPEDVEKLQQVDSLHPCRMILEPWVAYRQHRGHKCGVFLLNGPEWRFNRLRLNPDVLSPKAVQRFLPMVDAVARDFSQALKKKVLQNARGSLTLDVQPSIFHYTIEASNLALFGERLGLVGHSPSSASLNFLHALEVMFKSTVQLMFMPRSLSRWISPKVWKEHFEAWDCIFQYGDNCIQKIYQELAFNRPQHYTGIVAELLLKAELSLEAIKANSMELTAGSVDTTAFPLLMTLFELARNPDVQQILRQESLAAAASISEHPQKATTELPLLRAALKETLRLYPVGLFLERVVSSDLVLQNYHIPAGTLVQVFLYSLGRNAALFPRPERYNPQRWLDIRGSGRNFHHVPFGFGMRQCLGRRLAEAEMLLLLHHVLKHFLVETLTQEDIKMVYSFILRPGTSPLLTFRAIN
Kind of experiment: Inhibition of hCYP11B2 in transfected V79 cells. It counts as cell-based. Conditions: hamster V79 cells expressing human CYP11B2; substrate 11-deoxycorticosterone 200 nM. The method in brief: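 Hamster V79 cells stably co-expressing human CYP11B2 and rat NADPH-P450 reductase were pre-incubated with compounds for 2 hours, then given 200 nM 11-deoxycorticosterone for 30 minutes before ethyl acetate quench. Substrate and product were quantified by LC-MS/MS or HPLC at 260 nm, and IC50 was derived from percent inhibition.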

In the case of `N#Cc1ccc(-c2cncc3c2OCCN3S(=O)(=O)c2cccnc2)cc1` [O13, 4-(4-(Pyridin-3-ylsulfonyl)-3,4-dihydro-2H-pyrido[4,3-b][1,4]oxazin-8-yl)benzonitrile], the IC50 on human CYP11B1 amounted to 0.31 nM; at human CYP11B2, 0.48 nM.
On the same counts, the results for `CS(=O)(=O)N1CCOc2c(-c3ccc(C#N)cc3)cncc21` [O14, 4-(4-(Methylsulfonyl)-3,4-dihydro-2H-pyrido[4,3-b][1,4]oxazin-8-yl)benzonitrile] are 0.41 nM and 0.2 nM.
Take `N#Cc1ccc(-c2cncc3c2OCCN3S(=O)(=O)c2cccc3cccnc23)cc1` [O15, 4-(4-(Quinolin-8-ylsulfonyl)-3,4-dihydro-2H-pyrido[4,3-b][1,4]oxazin-8-yl)benzonitrile]: the IC50 against human CYP11B1 amounted to 1.46 nM; at human CYP11B2 it was 0.25 nM.
On the same counts, the results for `N#Cc1ccc(-c2cncc3c2OCCN3S(=O)(=O)c2cccs2)cc1` [O16, 4-(4-(Thiophen-2-ylsulfonyl)-3,4-dihydro-2H-pyrido[4,3-b][1,4]oxazin-8-yl)benzonitrile] are 0.04 nM and 0.56 nM.
On to `N#Cc1ccc(-c2cncc3c2OCCN3S(=O)(=O)c2cccc3ccccc23)cc1` [O17, 4-(4-(Naphthalen-1-ylsulfonyl)-3,4-dihydro-2H-pyrido[4,3-b][1,4]oxazin-8-yl)benzonitrile], for which the IC50 was 6.5 nM against human CYP11B1 and 0.39 nM against human CYP11B2.
For `N#Cc1ccc(-c2cncc3c2OCCN3S(=O)(=O)c2ccc3ccccc3c2)cc1` [O18, 4-(4-(Naphthalen-2-ylsulfonyl)-3,4-dihydro-2H-pyrido[4,3-b][1,4]oxazin-8-yl)benzonitrile] the same measures were 0.91 nM and 0.2 nM.
For `N#Cc1ccc(-c2cncc3c2OCCN3C(=O)c2ccc(F)cc2)cc1` [O19, 4-(4-(4-Fluorobenzoyl)-3,4-dihydro-2H-pyrido[4,3-b][1,4]oxazin-8-yl)benzonitrile] the same measures were 1350 nM and 23.1 nM.
On the same counts, the results for `N#Cc1ccc(-c2cncc3c2OCCN3C(=O)c2cccc(F)c2)cc1` [O20, 4-(4-(3-Fluorobenzoyl)-3,4-dihydro-2H-pyrido[4,3-b][1,4]oxazin-8-yl)benzonitrile] are 1730 nM and 25.2 nM.
In the case of `N#Cc1ccc(-c2cncc3c2OCCN3C(=O)c2ccccc2F)cc1` [O21, 4-(4-(2-Fluorobenzoyl)-3,4-dihydro-2H-pyrido[4,3-b][1,4]oxazin-8-yl)benzonitrile], the IC50 at human CYP11B1 turned out to be 1130 nM; against human CYP11B2 it was 26.1 nM.
As to `COc1ccc(C(=O)N2CCOc3c(-c4ccc(C#N)cc4)cncc32)cc1` [O22, 4-(4-(4-Methoxybenzoyl)-3,4-dihydro-2H-pyrido[4,3-b][1,4]oxazin-8-yl)benzonitrile], the values for the IC50 on human CYP11B1 and against human CYP11B2 were 3400 nM and 108 nM, respectively.
For `COc1cccc(C(=O)N2CCOc3c(-c4ccc(C#N)cc4)cncc32)c1` [O23, 4-(4-(3-Methoxybenzoyl)-3,4-dihydro-2H-pyrido[4,3-b][1,4]oxazin-8-yl)benzonitrile] the same measures were 516 nM and 29.5 nM.
In the case of `N#Cc1ccc(-c2cncc3c2OCCN3C(=O)c2ccc(C(F)(F)F)cc2)cc1` [O24, 4-(4-(4-(Trifluoromethyl)benzoyl)-3,4-dihydro-2H-pyrido[4,3-b][1,4]oxazin-8-yl)benzonitrile], the IC50 on human CYP11B1 is 85.6 nM; against human CYP11B2 it was 19.7 nM.
For `N#Cc1ccc(-c2cncc3c2OCCN3C(=O)c2cccc(C(F)(F)F)c2)cc1` [O25, 4-(4-(3-(Trifluoromethyl)benzoyl)-3,4-dihydro-2H-pyrido[4,3-b][1,4]oxazin-8-yl)benzonitrile] the same measures were 476 nM and 18.1 nM.
For the compound `N#Cc1ccc(-c2cncc3c2OCCN3C(=O)c2ccc([N+](=O)[O-])cc2)cc1` [O26, 4-(4-(4-Nitrobenzoyl)-3,4-dihydro-2H-pyrido[4,3-b][1,4]oxazin-8-yl)benzonitrile], the IC50 against human CYP11B1 stood at 1450 nM; against human CYP11B2 it was 22.4 nM.
For `N#Cc1ccc(-c2cncc3c2OCCN3C(=O)c2cccc([N+](=O)[O-])c2)cc1` [O27, 4-(4-(3-Nitrobenzoyl)-3,4-dihydro-2H-pyrido[4,3-b][1,4]oxazin-8-yl)benzonitrile], the IC50 against human CYP11B1 was 1200 nM; against human CYP11B2 it was 23.6 nM.
As to `N#Cc1ccc(-c2cncc3c2OCCN3C(=O)c2ccc(Cl)cc2)cc1` [O28, 4-(4-(4-Chlorobenzoyl)-3,4-dihydro-2H-pyrido[4,3-b][1,4]oxazin-8-yl)benzonitrile], the IC50 against human CYP11B1 came to 277 nM; against human CYP11B2, 20.9 nM.
On the same counts, the results for `N#Cc1ccc(-c2cncc3c2OCCN3C(=O)c2cccc(Cl)c2)cc1` [O29, 4-(4-(3-Chlorobenzoyl)-3,4-dihydro-2H-pyrido[4,3-b][1,4]oxazin-8-yl)benzonitrile] are 1710 nM and 5.9 nM.
For `N#Cc1ccc(-c2cncc3c2OCCN3C(=O)c2cccnc2)cc1` [O30, 4-(4-Nicotinoyl-3,4-dihydro-2H-pyrido[4,3-b][1,4]oxazin-8-yl)benzonitrile] the same measures were 4690 nM and 110 nM.
`N#Cc1ccc(-c2cncc3c2OCCN3C(=O)c2ccco2)cc1` [O31, 4-(4-(Furan-2-carbonyl)-3,4-dihydro-2H-pyrido[4,3-b][1,4]oxazin-8-yl)benzonitrile]: the IC50 against human CYP11B1 turned out to be 187 nM; against human CYP11B2 it was 2.8 nM.
On the same counts, the results for `N#CCC(=O)N1CCOc2c(-c3ccc(C#N)cc3)cncc21` [O32, 4-(4-(2-Cyanoacetyl)-3,4-dihydro-2H-pyrido[4,3-b][1,4]oxazin-8-yl)benzonitrile] are 785 nM and 18 nM.
For `N#Cc1ccc(-c2cncc3c2OCCN3C(=O)CCl)cc1` [O33, 4-(4-(2-Chloroacetyl)-3,4-dihydro-2H-pyrido[4,3-b][1,4]oxazin-8-yl)benzonitrile] the same measures were 1270 nM and 18.3 nM.
On the same counts, the results for `N#Cc1ccc(-c2cncc3c2OCCN3C(=O)CBr)cc1` [O34, 4-(4-(2-Bromoacetyl)-3,4-dihydro-2H-pyrido[4,3-b][1,4]oxazin-8-yl)benzonitrile] are 546 nM and 17.4 nM.
For the compound `N#Cc1ccc(-c2cncc3c2OCCN3C(=O)C(F)(F)F)cc1` [O35, 4-(4-(2,2,2-Trifluoroacetyl)-3,4-dihydro-2H-pyrido[4,3-b][1,4]oxazin-8-yl)benzonitrile], the values for the IC50 against human CYP11B1 and against human CYP11B2 were 101 nM and 0.9 nM, respectively.
In the case of `N#Cc1ccc(-c2cncc3c2OCCN3C(=O)Cc2ccc(F)cc2)cc1` [O36, 4-(4-(2-(4-Fluorophenyl)acetyl)-3,4-dihydro-2H-pyrido[4,3-b][1,4]oxazin-8-yl)benzonitrile], the IC50 at human CYP11B1 came to 262 nM; on human CYP11B2 it was 1.8 nM.
Regarding `N#Cc1ccc(-c2cncc3c2OCCN3C(=O)Cc2cccc(F)c2)cc1` [O37, 4-(4-(2-(3-Fluorophenyl)acetyl)-3,4-dihydro-2H-pyrido[4,3-b][1,4]oxazin-8-yl)benzonitrile], the figures for the IC50 on human CYP11B1 and on human CYP11B2 were 86 nM and 1.4 nM, respectively.
On the same counts, the results for `N#Cc1ccc(-c2cncc3c2OCCN3C(=O)Cc2ccc(Cl)cc2)cc1` [O38, 4-(4-(2-(4-Chlorophenyl)acetyl)-3,4-dihydro-2H-pyrido[4,3-b][1,4]oxazin-8-yl)benzonitrile] are 559 nM and 16.8 nM.
